In publication PMC8570331, “8-Hydroxyquinoline-Amino Acid Hybrids and Their Half-Sandwich Rh and Ru Complexes: Synthesis, Anticancer Activities, Solution Chemistry and Interaction with Biomolecules” (International Journal of Molecular Sciences, 2021):
Where two headings read alike, the source gives them in different places.

Experiments:
[1] = Proton dissociation constants of the ligands (pH-potentiometry, UV-vis, 1H NMR titrations); type: physicochemical; settings: for pKa: aqueous solution, I = 0.2 M KNO3, T = 25.0 °C
Protocol: pH-potentiometric measurements were carried out at 25.0 ± 0.1 °C in water in the pH range between 2.0 and 11.5 and at a constant ionic strength of 0.2 M KNO3. The titrations were performed in a carbonate-free KOH solution (0.20 M). The exact concentrations of HNO3 and KOH solutions were determined by pH-potentiometric titrations. An Orion 710A pH-meter equipped with a Metrohm combined electrode (type 6.0234.100) and a Metrohm 665 Dosimat burette were used for the pH-potentiometric measurements. […] The average water ionization constant, pKw, was determined as 13.76 ± 0.01, which is in good agreement with the literature data. The initial volume of the samples was 5.0 mL. The ligand concentration was 1.75 or 2.0 mM. Samples were degassed by bubbling purified argon through them for about 10 min prior to the measurements, and the inert gas was also passed over the solutions during the titrations. The computer program Hyperquad2013 [46] was utilized to establish the stoichiometry of the species and to calculate the equilibrium constants, similarly to that performed in our previous works.
Agilent Cary 8454 diode array spectrophotometer was utilized to obtain UV-vis spectra in the wavelength range 190–1100 nm. The path length (ℓ) was 1 cm in most cases (the actual ℓ is always indicated in the legends of the figures). The concentrations of the ligands and complexes were between 88 and 240 µM. For HSA and ct-DNA containing samples, complex concentrations were 100 µM, and 0.5 and 2 equiv. biomolecule were added for kinetic studies, respectively. Individual samples contained 0–20 µM HSA and 0–1.75 mM (nucleotide) ct-DNA. Spectra were always background corrected. The computer program HypSpec was used to obtain stability constants.
Bruker Avance III HD Ascend 500 Plus instrument (Billerica, MA, USA) was used for NMR studies. ^1H NMR spectroscopic measurements were carried out with a WATERGATE water suppression pulse scheme in the presence of 10% (v/v) D2O in most cases. DSS internal standard was added to samples to obtain reference peaks. Complex concentrations were 0.5 mM or 1.0 mM, and 0.5 equiv. HSA was added. ^1H NMR titrations were carried out in the presence of 0.2 M KNO3. With the FHA model peptide, the measurements were performed at 0.5 or 1 mM metal complex concentrations, and 1:1, 1:2 or 2:1 peptide-to-metal complex ratios were applied. The computer program HypSpec was used to obtain stability constants.

[2] = Distribution coefficients, shake-flask n-octanol/buffered aqueous solution; type: physicochemical; settings: pH 7.4, n-octanol/buffer, in 100 mM KCl, read-out: logD7.4
Protocol: It is worth noting that these amino acid hybrids have excellent water solubility due to their zwitterionic form, unlike most 8-hydroxyquinolines.
Distribution coefficients of the ligands as well as of the complexes were determined at pH = 7.4 using the traditional shake-flask method in n-octanol/buffered aqueous solution (20 mM phosphate) at different chloride ion concentrations (4, 24 and 100 mM) using UV-vis spectrophotometry for the analysis. The measurement and data evaluation were performed as described in our former work.

[3] = tested on: MRC-5 human lung fibroblast cell line; test: MTT cytotoxicity assay in MRC-5; type: cell-based; settings: Homo sapiens, MRC5, 72 h incubation
Protocol: (§1) The in vitro cytotoxic activity of the novel water-soluble amino acid derivatives of HQCl and their RhCp* and RuCym complexes was measured by the thiazolyl blue tetrazolium bromide (MTT) assay in two human colon adenocarcinoma cell lines (Colo-205 and Colo-320) and in one non-tumoral human lung fibroblast cell line (MRC-5). The results are given in terms of IC50 values (Table 1). Colo-205 is a drug-sensitive cell line with a normal ABCB1 transporter expression pattern, while Colo-320 is multidrug-resistant and overexpresses the ABCB1 system.
(§2) All cell culture reagents were obtained from Sigma-Aldrich and plasticware from Sarstedt (Nümbrecht, Germany). Human colonic Colo-205 doxorubicin-sensitive and Colo-320/MDR-LRP multidrug-resistant adenocarcinoma and MRC-5 human embryonal lung fibroblast cell lines were purchased from LGC Promochem, Teddington, UK. The colonic adenocarcinoma cells were cultured in Roswell Park Memorial Institute (RPMI) 1640 medium supplemented with 10% heat-inactivated fetal bovine serum, 2 mM L-glutamine, 1 mM sodium pyruvate and […]. The MRC-5 cell line was cultured in Eagle’s Minimal Essential Medium (EMEM, Sigma-Aldrich, St. Louis, MO, USA) supplemented with a non-essential amino acid (NEAA) mixture (Sigma-Aldrich, St. Louis, MO, USA) a selection of vitamins, 10% heat-inactivated foetal bovine serum (FBS), 2 mM L-glutamine (Sigma-Aldrich, St. Louis, MO, USA), 1 mM Na-pyruvate (Sigma-Aldrich, St. Louis, MO, USA), nystatin (Sigma-Aldrich, St. Louis, MO, USA) and a penicillin-streptomycin mixture (Sigma-Aldrich, St. Louis, MO, USA) in con-centrations of 100 U/L and 10 mg/L, respectively. The cells were incubated at 37 °C, in a 5% CO2, 95% air atmosphere. All cell lines were detached with Trypsin-Versene (EDTA) solution for 5 min at 37 °C.
(§3) The tested compounds were dissolved in 10% (v/v) DMSO/H2O using 4 mM concentration. Doxorubicin (Merck, Darmstadt, Germany) was used as a positive control. Then stock solutions were diluted in complete culture medium, and two-fold serial dilutions of compounds were prepared in 100 μL of the medium, horizontally. The semi-adherent colonic adenocarcinoma cells were treated with Trypsin-Versene (EDTA) solution. They were adjusted to a density of 1 × 10^4 cells in 100 μL of RPMI 1640 or EMEM medium and were added to each well, with the exception of the medium control wells. The final volume of the wells containing compounds and cells was 200 μL. The plates containing Colo-205, Colo-320 or MRC-5 cells were incubated at 37 °C for 72 h; at the end of the incubation period, 20 μL of MTT solution (from a stock solution of 5 mg/mL) were added to each well. After incubation at 37 °C for 4 h, 100 μL of SDS solution (10% in 0.01 M HCI) were added to each well, and the plates were further incubated at 37 °C overnight. […] The IC50 values were obtained from at least 3 independent experiments.

[4] = design: method as in PMID 32500882; settings: cited from earlier work
[5] = tested on: Colo-320 human colon adenocarcinoma cell line (multidrug-resistant); design: method as in PMID 32500882; settings: cited from earlier work
[6] = tested on: Colo-205 human colon adenocarcinoma cell line (doxorubicin-sensitive); design: method as in PMID 32500882; settings: cited from earlier work
Colo-205 cells = test: Annexin V-FITC / propidium iodide apoptosis induction assay, flow cytometry; type: cell-based, human; settings: 3 h induction
Text: 12H-Benzo[α]phenothiazine (M627) and cisplatin were used as positive controls. Annexin-V assay offers the possibility of detecting early phases of apoptosis. Apoptosis is a morphologically and biochemically distinct form of programmed cell death, which is the preferred mode of action for an anticancer compound. PI was used to distinguish between viable, early apoptotic and necrotic or late apoptotic cells. […] In order to better understand the different behavior of the studied compounds, an in-depth analysis of the various solution (physico-)chemical properties of the ligands and complexes were performed.
The assay was carried out using an Annexin V-FITC Apoptosis Detection Kit from Sigma-Aldrich according to the manufacturer’s instructions. The concentration of the Colo-205 cell suspension was adjusted to approximately 0.5 × 10^6 cells per mL in RPMI 1640 medium, and the cell suspension was distributed in 1 mL aliquots into a 24-well plate and then incubated overnight at 37 °C and 5% CO2. The next day, the medium was removed and replaced by 1 mL RPMI 1640 medium containing the compounds except for the control samples. […] After the incubation period, the samples were washed with PBS, and a fresh medium was added to the samples. The cells were incubated overnight at 37 °C and 5% CO2. The next day, 200 μL 0.25% Trypsin (Trypsin-Versen) was added to the samples until cells appeared detached, followed by the addition of 400 μL of medium supplemented with 10% bovine serum. The cells were collected in Eppendorf tubes and centrifuged at 2000× g for 2 min. The harvested cells were re-suspended in a fresh serum-free RPMI 1640 culture medium. After this step, the apoptosis assay was carried out according to the protocol of the kit. The fluorescence was analyzed immediately using a ParTec CyFlow flow cytometer (Partec GmbH, Münster, Germany).

[7] = design: method as in PMID 32500882; settings: cited from earlier work; remark: listed apart in the source
Ac-Phe–His–Ala-NH2 (FHA) = tested on: Ac-Phe–His–Ala-NH2 (FHA); design: method as in PMID 34374386; settings: cited from earlier work
[8] = target: T1, HSA site II (subdomain IIIA) (Homo sapiens, UniProt P02768); design: method as in PMID 34374386; settings: cited from earlier work
T1 construct: purchased Sigma-Aldrich A8763
T1 sequence (P02768 25-609): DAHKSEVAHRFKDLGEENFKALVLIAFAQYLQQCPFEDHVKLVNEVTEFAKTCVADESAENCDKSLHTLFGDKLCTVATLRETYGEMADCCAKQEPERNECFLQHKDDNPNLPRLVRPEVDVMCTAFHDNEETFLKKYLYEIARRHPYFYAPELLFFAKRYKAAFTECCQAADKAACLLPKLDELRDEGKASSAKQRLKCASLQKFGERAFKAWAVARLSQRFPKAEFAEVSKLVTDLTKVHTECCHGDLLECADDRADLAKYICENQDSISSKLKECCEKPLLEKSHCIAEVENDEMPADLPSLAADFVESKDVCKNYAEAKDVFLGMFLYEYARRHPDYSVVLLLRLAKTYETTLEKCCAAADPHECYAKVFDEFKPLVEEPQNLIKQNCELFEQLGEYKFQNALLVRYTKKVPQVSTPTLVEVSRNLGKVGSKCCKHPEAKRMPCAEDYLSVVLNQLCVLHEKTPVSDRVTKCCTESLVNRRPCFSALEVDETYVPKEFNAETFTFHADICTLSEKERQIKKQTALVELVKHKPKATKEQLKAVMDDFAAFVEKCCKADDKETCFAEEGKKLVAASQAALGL

[9] = target: T2, HSA site I (subdomain IIA) (Homo sapiens, UniProt P02768); design: method as in PMID 34374386; settings: cited from earlier work
T2 construct: purchased Sigma-Aldrich A8763
T2 sequence (P02768 25-609): as above

Ac-Ala–His–Ala-NH2 (AHA) = tested on: Ac-Ala–His–Ala-NH2 (AHA); design: method as in PMID 34374386; settings: cited from earlier work
[10] = tested on: Colo-205 human colon adenocarcinoma cell line (doxorubicin-sensitive); test: MTT cytotoxicity assay in Colo-205; type: cell-based; settings: Homo sapiens, COLO 205, 72 h incubation
Protocol: as §1, §2, §3

[11] = tested on: Colo-320 human colon adenocarcinoma cell line (multidrug-resistant); test: MTT cytotoxicity assay in Colo-320; type: cell-based; settings: Homo sapiens, COLO 320, 72 h incubation
Protocol: as §1, §2, §3

O=C(O)[C@H]1CCCN1Cc1cc(Cl)c2cccnc2c1O [HQCl-D-Pro, (R)-5-chloro-7-((proline-1-yl)methyl)8-hydroxyquinoline]
pKa ([1]; 1H NMR, read-out: pKa (NhPro/ProH+)): > 11
pKa ([1]; 1H NMR, read-out: pKa (NqH+)): 2.32 ± 0.03
pKa ([1]; 1H NMR, read-out: pKa (OH)): 7.75 ± 0.02
pKa ([1]; UV-vis, read-out: pKa (NhPro/ProH+)): > 11
pKa ([1]; UV-vis, read-out: pKa (NqH+)): 2.13 ± 0.03
pKa ([1]; UV-vis, read-out: pKa (OH)): 7.77 ± 0.04
pKa ([1]; pH-potentiometry, read-out: pKa (NhPro/ProH+)): > 11
pKa ([1]; pH-potentiometry, read-out: pKa (NqH+)): < 2
pKa ([1]; pH-potentiometry, read-out: pKa (OH)): 7.71 ± 0.06
fraction of the negatively charged species (O−, COO−, NhPro/ProH+) ([1]; at pH 7.4): 30%
logD [2]: -0.02 ± 0.01
IC50 [3]: 5.33 ± 0.44 µM

O=C(O)[C@@H]1CCCN1Cc1cc(Cl)c2cccnc2c1O [HQCl-L-Pro, (S)-5-chloro-7-((proline-1-yl)methyl)8-hydroxyquinoline]
pKa (NH+Pro) [4]: > 11.5
pKa (NqH+) [4]: 2.36
pKa (OH) [4]: 7.76
IC50 [5]: 8.5 µM
IC50 [3]: 4.57 ± 0.21 µM
IC50 [6]: 23.4 µM

c1ccc2c(c1)Nc1c(ccc3ccccc13)S2 [M627, 12H-Benzo[α]phenothiazine, reference compound]
cell death, gated events (Colo-205 cells; 10 μM): 15.2%
early apoptosis, gated events (Colo-205 cells; 10 μM): 5.27%
late apoptosis and necrosis, gated events (Colo-205 cells; 10 μM): 16.8%
cell death (Q1), gated events (Colo-205 cells; 20 μM): 20.9%
early apoptosis (Q3), gated events (Colo-205 cells; 20 μM): 21.7%
late apoptosis and necrosis (Q2), gated events (Colo-205 cells; 20 μM): 36.2%

Cc1c(C)c(C)[c-](C)c1C.O=C(O)[C@@H]1CCC[NH+]1Cc1cc(Cl)c2cccnc2c1[O-].[Cl-].[Cl-].[Rh+3] [RhCp*–HQCl-L-Pro, [RhCp*(HQCl-L-Pro)Cl]Cl]
stability constant logK of the RhCp* complex [7]: 13.41
FHA logKFHA′ (Ac-Phe–His–Ala-NH2 (FHA)): 4.7
reaction time with the tripeptides (Ac-Phe–His–Ala-NH2 (FHA)): few seconds
DG Displacement logKDG′, Site II [8]: 5.6
Trp-214 Quenching logKQ′, Site I [9]: 5.5
logK′ (AHA) (Ac-Ala–His–Ala-NH2 (AHA)): 4.2

Cc1ccc(C(C)C)cc1.O=C(O)[C@@H]1CCC[NH+]1Cc1cc(Cl)c2cccnc2c1[O-].[Cl-].[Cl-].[Ru+2] [RuCym–HQCl-L-Pro, [RuCym(HQCl-L-Pro)Cl]Cl]
FHA logKFHA′ (Ac-Phe–His–Ala-NH2 (FHA)): 5.1
reaction time with the tripeptides (Ac-Phe–His–Ala-NH2 (FHA)): 3 h
DG Displacement logKDG′, Site II [8]: 6.1
Trp-214 Quenching logKQ′, Site I [9]: 5.7
logK′ (AHA) (Ac-Ala–His–Ala-NH2 (AHA)): 4.4

N.N.[Cl][Pt][Cl] [cisplatin, reference compound]
cell death, gated events (Colo-205 cells; 15 μM): 3.18%
early apoptosis, gated events (Colo-205 cells; 15 μM): 1.06%
late apoptosis and necrosis, gated events (Colo-205 cells; 15 μM): 4.70%

COc1cccc2c1C(=O)c1c(O)c3c(c(O)c1C2=O)C[C@@](O)(C(=O)CO)C[C@@H]3O[C@H]1C[C@H](N)[C@H](O)[C@H](C)O1 [doxorubicin, reference compound]
IC50 [10]: 0.05 ± 0.01 µM
IC50 [11]: 0.19 ± 0.02 µM
IC50 [3]: 0.82 ± 0.16 µM
